Test results from patent publication US4472304A, “(Amido)N-substituted bleomycins, salts thereof and process for preparation thereof” (Nippon Kayaku Kabushiki Kaisha, priority 1981, dated 1984).
Blank lines part the entries; values can stand above or below the compound they belong to.

Assays:
[1] = test system: Bacillus subtilis; test: Antimicrobial activity against Bacillus subtilis (agar plate-cylinder); type: cell-based; conditions: standard bleomycin A2 (copper-free) assumed 1,000 mcg potency/mg
Experimental: (§1) 2. ANT[…] MYC[…] ATCC 607 AND BACILLUS SUBTILIS
(§2) The antimicrobial activity was tested against the captioned test organisms by the method of agar plate-cylinder. The activity was recorded on the assumption that the activity of standard sample of bleomycin A2 (copper-free form) is 1,000 mcg poteney/mg.

[2] = test system: Mycobacterium smegmatis ATCC 607; test: Antimicrobial activity against Mycobacterium smegmatis ATCC 607 (agar plate-cylinder); type: cell-based; conditions: standard bleomycin A2 (copper-free) assumed 1,000 mcg potency/mg
Experimental: as §1, §2

[3] = molecular target: T1, bleomycin-inactivating enzyme (Rattus norvegicus, UniProt P70645); conditions: rated under conditions where inactivation of bleomycin B2 is 50%; 37° C., 40 minutes; residual activity against M. smegmatis ATCC 607
T1 sequence (P70645 1-454): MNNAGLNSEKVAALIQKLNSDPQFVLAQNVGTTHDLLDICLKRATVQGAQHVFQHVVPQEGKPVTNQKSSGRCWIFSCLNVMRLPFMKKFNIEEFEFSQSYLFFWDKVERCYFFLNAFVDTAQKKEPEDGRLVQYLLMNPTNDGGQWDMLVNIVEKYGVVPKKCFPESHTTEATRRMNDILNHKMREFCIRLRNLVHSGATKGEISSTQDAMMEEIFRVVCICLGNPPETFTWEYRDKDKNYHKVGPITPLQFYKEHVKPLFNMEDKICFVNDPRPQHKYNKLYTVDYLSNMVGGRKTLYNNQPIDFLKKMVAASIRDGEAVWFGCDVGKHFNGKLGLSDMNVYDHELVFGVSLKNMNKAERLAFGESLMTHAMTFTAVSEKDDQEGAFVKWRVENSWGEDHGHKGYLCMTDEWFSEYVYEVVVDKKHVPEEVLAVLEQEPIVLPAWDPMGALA

[4] = test system: pulmonary fibrosis; test: Pulmonary toxicity (pulmonary fibrosis) in mice
[5] = ICR mice, 5 mg/kg i.p. once a day for 10 days, points 0, 1, 2, 4, 6

- Resistance of Cu-free compound against inactivating enzyme (degree of inactivation) [3]: + +++
Structure (SMILES): CCN(CC)CCCC(C)NC(=O)C(N)CNC(CC(N)=O)c1nc(N)c(C)c(C(=O)NC(C(=O)NC(C)C(O)C(C)C(=O)NC(C(=O)NCCc2nc(-c3nc(C(=O)NCCCNC(C)c4ccccc4)cs3)cs2)C(C)O)C(OC2OC(CO)C(O)C(O)C2OC2OC(CO)C(O)C(OC(N)=O)C2O)c2cnc[nH]2)n1 [Compound 36, 3-((S)-1'-phenylethylamino)propylamino-(amido)N--[4-diethylamino-1-methylbutyl]-BLM]
- Antimicrobial potency of Cu-free compound against Bacillus subtilis [1]: 3694 mcg potency/mg
- Antimicrobial potency of Cu-free compound against Mycobacterium smegmatis ATCC 607 [2]: 6061 mcg potency/mg

- Resistance of Cu-free compound against inactivating enzyme (degree of inactivation) [3]: +++ +
Structure (SMILES): CCCCN(CCCC)CCCNC(=O)C(N)CNC(CC(N)=O)c1nc(N)c(C)c(C(=O)NC(C(=O)NC(C)C(O)C(C)C(=O)NC(C(=O)NCCc2nc(-c3nc(C(=O)NCCC[N+](CC)(CC)CCCN(Cc4ccccc4)Cc4ccccc4)cs3)cs2)C(C)O)C(OC2OC(CO)C(O)C(O)C2OC2OC(CO)C(O)C(OC(N)=O)C2O)c2cnc[nH]2)n1 (centres unmarked) [Compound 57, 3-{N,N--diethyl-N--[3-(dibenzylamino)propyl]amino}propylamino-(amido)N--[3-(di-n-butylamino)propyl]-BLM]
- Incidence: Number of mice with pulmonary fibrosis (%) ([4]; ICR mice, 5 mg/kg i.p. once a day for 10 days, 5 weeks observation): 0%
- Incidence: Number of mice with pulmonary fibrosis ([4]; ICR mice, 5 mg/kg i.p. once a day for 10 days, 5 weeks observation, mice with fibrosis/total): 0/9
- Grade: Total score of pulmonary fibrosis/total number of samples [4, 5]: 0/27
- Grade: Total score of pulmonary fibrosis/total number of samples (%) [4, 5]: 0%
- Ratio (by comparison with "Bleomycin Complex") ([4]; versus Bleomycin Complex): 0
- Antimicrobial potency of Cu-free compound against Bacillus subtilis [1]: 1831 mcg potency/mg
- Antimicrobial potency of Cu-free compound against Mycobacterium smegmatis ATCC 607 [2]: 25924 mcg potency/mg
